In PubChem BioAssay AID248 (DTP/NCI, 2004):
Values joined by “and” are separate entries in the source; they are usually repeats but may differ in a detail not shown here. Identical values can stand only once. Toxic doses and inconclusive results are not listed. No stated cut-off is given here; in the data, active means T/C of 150% or more; inactive means T/C below 125%.

Tested on: L1210 leukemia ip in BDF1 mice, survival T/C
Test: NCI In Vivo Anticancer Drug Screen. Data for tumor model L1210 Leukemia (intraperitoneal) in B6D2F1 (BDF1) mice
Details: endpoint: mean survival time, higher = longer survival
Procedure, shortened: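 Transplantable tumor model; survival measured in treated vs vehicle control mice. Value = treated/control.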

[1] = dose: 100.0 mg/kg/injection, schedule: Q04DX002 (ip), vehicle: Klucel (hydroxypropylcellulose) (HPC)
[2] = dose: 200.0 mg/kg/injection, schedule: Q04DX002 (ip), vehicle: Klucel (hydroxypropylcellulose) (HPC)
[3] = dose: 400.0 mg/kg/injection, schedule: Q04DX002 (ip), vehicle: Klucel (hydroxypropylcellulose) (HPC)
[4] = dose: 100.0 mg/kg/injection, schedule: Q01DX001 (ip), vehicle: saline
[5] = dose: 200.0 mg/kg/injection, schedule: Q01DX001 (ip), vehicle: saline
[6] = dose: 400.0 mg/kg/injection, schedule: Q01DX001 (ip), vehicle: saline
[7] = dose: 100.0 mg/kg/injection, schedule: Q01DX001 (ip), vehicle: acetone
[8] = dose: 100.0 mg/kg/injection, schedule: Q04DX003 (ip), vehicle: Klucel (hydroxypropylcellulose) (HPC)
[9] = dose: 200.0 mg/kg/injection, schedule: Q01DX001 (ip), vehicle: acetone
[10] = dose: 200.0 mg/kg/injection, schedule: Q04DX003 (ip), vehicle: Klucel (hydroxypropylcellulose) (HPC)
[11] = dose: 400.0 mg/kg/injection, schedule: Q01DX001 (ip), vehicle: acetone
[12] = dose: 400.0 mg/kg/injection, schedule: Q04DX003 (ip), vehicle: Klucel (hydroxypropylcellulose) (HPC)

Measured: T/C

O=[N+]([O-])c1ccc2c(c1)-c1ccccc1C2O (stereo not given)
inactive: dose: 100.0 mg/kg/injection, schedule: Q01DX005 (ip), vehicle: Klucel (hydroxypropylcellulose) (HPC) 105 % of control | [1] 107 % of control | dose: 200.0 mg/kg/injection, schedule: Q01DX005 (ip), vehicle: Klucel (hydroxypropylcellulose) (HPC) 94 % of control | [2] 93 % of control | dose: 400.0 mg/kg/injection, schedule: Q01DX005 (ip), vehicle: Klucel (hydroxypropylcellulose) (HPC) 91 % of control | [3] 104 % of control

O=C(Nc1ccc(Cl)c(Cl)c1)O/N=C\c1c(Cl)ccc([N+](=O)[O-])c1Cl
inactive: [4] 102 % of control | [5] 107 % of control | [6] 102 % of control

O=C(O)CSCc1ccc(Cl)cc1
inactive: [7] 95 % of control | [8] 94 % of control | [9] 97 % of control | [10] 98 % of control | [11] 97 % of control | [12] 98 % of control

CCNc1nc(C)c2nc(C(=O)NCc3ccccc3)c(=O)n(CC)c2n1
inactive: dose: 100.0 mg/kg/injection, schedule: Q01DX001 (ip), vehicle: Klucel (hydroxypropylcellulose) (HPC) 94 % of control | dose: 200.0 mg/kg/injection, schedule: Q01DX001 (ip), vehicle: Klucel (hydroxypropylcellulose) (HPC) 94 % of control

OC(CF)C(O)C(O)C(O)CF (stereo not given)
inactive: dose: 75.0 mg/kg/injection, schedule: Q01DX009 (ip), vehicle: saline 95 % of control | [4] 101 % of control | [5] 93 % of control | dose: 300.0 mg/kg/injection, schedule: Q01DX009 (ip), vehicle: saline 101 % of control | [6] 93 % of control

CCCCCCCCCCCCCCCCCCNC(=O)N(CC)c1ccccc1C
inactive: dose: 100.0 mg/kg/injection, schedule: Q01DX009 (ip), vehicle: Klucel (hydroxypropylcellulose) (HPC) 101 % of control | [8] 93 % of control | dose: 200.0 mg/kg/injection, schedule: Q01DX009 (ip), vehicle: Klucel (hydroxypropylcellulose) (HPC) 98 % of control | [10] 90 % of control | dose: 400.0 mg/kg/injection, schedule: Q01DX009 (ip), vehicle: Klucel (hydroxypropylcellulose) (HPC) 101 % of control | [12] 92 % of control

ClC(Cl)[P+](N1CCCCC1)(N1CCCCC1)N1CCCCC1
inactive: dose: 0.75 mg/kg/injection, schedule: Q04DX003 (ip), vehicle: Klucel (hydroxypropylcellulose) (HPC) 115 % of control | dose: 1.5 mg/kg/injection, schedule: Q04DX003 (ip), vehicle: Klucel (hydroxypropylcellulose) (HPC) 118 % of control | dose: 3.0 mg/kg/injection, schedule: Q04DX003 (ip), vehicle: Klucel (hydroxypropylcellulose) (HPC) 93 % of control and 118 % of control

CC(=O)Oc1ccc(CCN=C(c2ccccc2)c2ccccc2)cc1OC(C)=O
inactive: [4] 107 % of control | [5] 104 % of control | [6] 100 % of control

NC1=NC(c2ccc(Cl)cc2)N(c2ccc(S(N)(=O)=O)cc2)C(N)=N1 (stereo not given)
inactive: dose: 75.0 mg/kg/injection, schedule: Q01DX001 (ip), vehicle: saline 102 % of control | dose: 150.0 mg/kg/injection, schedule: Q01DX001 (ip), vehicle: saline 96 % of control

CCOC(=O)N(OC(C)=O)P(=O)(N1CC1(C)C)N1CC1(C)C (stereo not given)
inactive: dose: 100.0 mg/kg/injection, schedule: Q04DX002 (ip), vehicle: saline 100 % of control | dose: 200.0 mg/kg/injection, schedule: Q04DX002 (ip), vehicle: saline 123 % of control

O=C(O)c1ccc(C(=O)O)o1
inactive: [1] 95 % of control | [2] 91 % of control | [3] 91 % of control

Fc1c(F)c(F)c([Si](c2c(F)c(F)c(F)c(F)c2F)(c2c(F)c(F)c(F)c(F)c2F)c2c(F)c(F)c(F)c(F)c2F)c(F)c1F
inactive: dose: 100.0 mg/kg/injection, schedule: Q01DX001 (ip), vehicle: saline with Tween-80 96 % of control | dose: 200.0 mg/kg/injection, schedule: Q01DX001 (ip), vehicle: saline with Tween-80 91 % of control | dose: 400.0 mg/kg/injection, schedule: Q01DX001 (ip), vehicle: saline with Tween-80 86 % of control

O=S(=O)(/C=C/c1ccccc1)Oc1ccc(-c2ccccc2)cc1
inactive: [7] 104 % of control | dose: 100.0 mg/kg/injection, schedule: Q01DX009 (ip), vehicle: acetone 90 % of control | dose: 100.0 mg/kg/injection, schedule: Q04DX003 (ip), vehicle: acetone 97 % of control | [9] 98 % of control | dose: 200.0 mg/kg/injection, schedule: Q04DX003 (ip), vehicle: acetone 91 % of control | [11] 98 % of control | dose: 400.0 mg/kg/injection, schedule: Q01DX009 (ip), vehicle: acetone 90 % of control | dose: 400.0 mg/kg/injection, schedule: Q04DX003 (ip), vehicle: acetone 91 % of control

CC1CC2NC(C)CC3NC(C)CC(N1)N32 (stereo not given)
inactive: [8] 106 % of control | [10] 97 % of control | [12] 111 % of control
